The values below come from patent US20180372720A1, “STABLE ISOTOPE LABELING KINETICS - SECONDARY ION MASS SPECTROMETRY (SILK SIMS) AND METHODS OF USE THEREOF” (Washington University, priority 2017, published 2018).

The test system of one data set is amyloid-β plaques. The note with it: mouse, in vivo. On the procedure:
To assess the feasibility of detecting ^13C6-leucine isotopic enrichment in native amyloid-β plaques, tracer was administered to APP/PS1 mice at 3.5 months of age (pre-plaque pathology) for 10 and 5 weeks (FIG. 2A).
Two male double transgenic mice expressing chimeric mouse/human amyloid precursor protein (Mo/HuAPP695swe) and a mutant human presenilin 1 (PS1-dE9) both directed to CNS neurons (stock 34832-JAX) were kindly provide by Dr. Timothy Miller. Animals were given leucine-free chow (Catalog #1831936, Test Diet, St. Louis, Mo.) with 5 mg/mL ^12C6-leucine added to 2% sucrose-containing drinking water to control leucine intake for a one week acclimation period. After the one-week acclimation period, animals were given 5 mg/mL ^13C6- or ^12C6-leucine orally via 2% sucrose drinking water, averaging 36 mL of H2O/week (FIG. 2). Animals were 4 months old at the time of labeling and 6.5 months old at the end of labeling. Following the end of the labeling paradigm, animals were anesthetized with 65 mg/kg pentobarbital sodium and sacrificed by decapitation. Brains were removed and placed in 10% neutral-buffer formalin (Catalog #15740-01, EMS, Hatfield, Pa.). All animal procedures were conducted in accordance with the Washington University Animal Studies Committee, and are consistent with the National Institutes of Health (NIH) guidelines for the care and use of animals. Pieces of mouse brain were washed into NaHCa and incubated overnight at 4° C. The following morning, samples were stained with 1% osmium/NaHCa for 1 hour, washed 4 times over 1 hour and then en bloc stained with 1% uranyl acetate/H2O for 1 hour in the dark. Samples were rinsed with 3 exchanges of water, 10 minutes each and then processed for LR White embedding as described above with the addition of being gold-coated once on the Si wafer. Serial adjacent sections were place on glass microscope slides for toluidine blue staining for light microscopy.
Data was acquired on either a Cameca NanoSIMS 50 at WASHU (cells and human tissue) or NanoSIMS 50 L at Brigham and Women's Hospital (mouse tissue). Images of the B-cell hybridoma used to calculate that ^13C6-leucine standard curve were acquired at a 50 μm raster for 15 minutes at 1 ms/px and 65.5 s/plane (dwell time) for a total of 10 planes (i.e., cycles) per mass (256×256 px). APP/PS1 mouse brain tissue was acquired at a 17-60 μm raster for 11-87 minutes at 2 ms/px and 131 s/plane (dwell time) for a total of 5-40 cycles (i.e., planes) per mass (256×256 px).
Each analysis was performed in 24-hour blocks with measurements on SiC standard to assess instrument stability followed by measurements on an un-labeled control prior to SILK-SIMS data acquisition. Raw image data was imported into custom, in-house particle definition software, L'Image, to produce quantitative mass images of heavy and light isotopes, and determine where any isotopic anomalies may be located. The fractional uncertainty, f, of the heavy/light isotope ratios in each region-of-interest (ROI) was calculated in Excel as the sum in quadrature of the standard deviation of the average ratios measured for non-labeled material, σStd, and the Poisson errors, σROI, of the ROI itself, as given by the equation

The conditions of data set [1]: mouse, in vivo.
Description: Mouse whole blood was spun at 1,000×g for 10 min and the plasma (supernatant) removed. Plasma proteins were precipitated with ice-cold acetone followed by de-lipidation with hexane and the aqueous fraction was dried in vacuo^1. 1:1 MTBSTFA/acetonitrile was added and samples were incubated 70° C. for 30 min. Duplicate 1 μL injections were made into an Agilent 5973 MSD mass spectrometer using a 30 μm×0.25 mm DB-5MS column (Agilent Technologies). […] The molar fraction of labeled leucine was calculated as: MFL=TTR/(1+TTR).
The next data set concerns Aβ plaques. The note with it: in vivo.
Another data set has as its system Aβ proteoforms. The conditions noted are these: Pt2, 8 days between labeling and expiration.

Description for Aβ plaques: Human cortical tissue samples were obtained from the Charles F. and Joanne Knight Alzheimer's Disease Research Center (ADRC) at Washington University School of Medicine in Saint Louis, Mo. Cognitive status was determined with a validated retrospective postmortem interview with an informant to establish the Clinical Dementia Rating (CDR). […] At autopsy, the left hemisphere was fixed in 10% neutral buffered formalin and stored at room temperature until further preparation.
Blocks were polymerized at 80° C. for 72 hrs. Tissue blocks were sectioned using a diamond ultrathin section knife on a Reichert Ultra-Cut E ultramicrotome at 300-500 nm thick. […]
Each analysis was performed in 24-hour blocks with measurements on SiC standard to assess instrument stability followed by measurements on an un-labeled control prior to SILK-SIMS data acquisition. Raw image data was imported into custom, in-house particle definition software, L'Image, to produce quantitative mass images of heavy and light isotopes, and determine where any isotopic anomalies may be located. The fractional uncertainty, f, of the heavy/light isotope ratios in each region-of-interest (ROI) was calculated in Excel as the sum in quadrature of the standard deviation of the average ratios measured for non-labeled material, σStd, and the Poisson errors, σROI, of the ROI itself, as given by the equation […]
Description for Aβ proteoforms: 1 g of frontal lobe tissue was homogenized in ice-cold 1×PBS with 0.05% CHAPS and centrifuged at 17,000×g for 30 min at 4° C. as previously described^4. The supernatant was spun for 1 hr at 100,000×g at 4° C. and the resulting pellet solubilize in 5 M guanidine overnight at 4° C. with rotation. Next, samples were spun for 20 min at 17,000×g at 4° C. and the supernatant was diluted 1:10 in 1×PBS in BSA-block tubes as previously described^4. Samples were immunoprecipitated (IP) with 50 uL of HJ5.1 anti-Aβ antibody (mid-domain epitope) coupled Dynabeads (Catalog #14311 D, Invitrogen, Carlsbad, Calif.) made following the manufacturer's instructions. After overnight incubation at 4° C. IPs were eluted in neat formic acid and dried in vacuo. Samples were resuspended in 50 mM TEABC (Catalog #17902, Sigma, St. Louis, Mo.), spiked with ^15N-Aβ internal standard, and digested overnight with 0.25 ng/μL Lys-N(Catalog #100965-1, Seikagaku Biobusiness Corp., Tokyo, Japan) at 4° C.
Samples were resuspended in 1% FA/10% ACN (v/v) with 20 nM BSA digest (Catalog #1863078, Pierce, Rockford, Ill.). Samples were analyzed in triplicate by nanoLC-MS/MS on an LTQ-Orbitrap Fusion (Thermo Fisher Scientific) in positive ion mode. Separations were performed using an online NanoAcquity UPLC (Waters, Milford, Mass.) using an ACQUITY UPLC HSS T3 (360 μm OD×75 μm ID) column packed with 10 cm C18 (1.8 μm, 100 Å, Waters) at 300 nL/min and heated to 65° C. Mobile phases were 0.1% FA in water (A) and 0.1% FA in ACN (B). Samples were eluted from the column with the gradient starting at 12% B, which was ramped to 32% B over 10 min and further increased to 90% B over 5 min and held for 1 min, before re-equilibration to 12% B over 2 min. Total run time, including column equilibration, sample loading, and analysis was 30 min. The mass spectrometer was operated in targeted MS2 mode. MS2 spectra were acquired in the Orbitrap (30,000 at m/z 400) in centroid mode using XCalibur, version 4.0 (Thermo Fisher Scientific). Ion injection times for the targeted MS2 scans for labeled and unlabeled respectively (in ms) were: Aβ mid-domain (54, 1080), Aβ40 (54, 540), and Aβ42 (54, 1080). The Orbitrap automatic gain control targets were set 5×10^5 for all proteoforms except Aβ42, which was set to 1×10^6. The targeted precursor ions were sequentially isolated in the quadrupole and fragmented in the Orbitrap using HCD (isolation width 1.6 Da, normalized collision energy 25%, activation Q 0.250, and activation time 10 ms). […]
Data (.raw files) were imported into a Skyline template containing the Lys-N C-terminal peptides of Aβ8, 40, 42 and the mid-domain. […] The sum of all transitions (b ions monitored for each parent peptide) were summed for unlabeled and SILK Aβ peptides and exported from Skyline to Excel. […]

Consider `CC(C)C[C@H](N)C(=O)O` [^13C6-leucine], for which, in the data set with amyloid-β plaques, the “normalized tracer enrichment ratio” value is 0.015±2.22×10^−4 and the “raw tracer enrichment ratio” value is on record as 0.015±1.56×10^−5. For the same compound, in the data set on amyloid-β plaques (po), the “^13C/^12C isotope ratio” value is given as 2.7%, the “^13C/^12C ratio” value is listed as 3.7%, the “normalized ^13C^14N−/^12C^14N− ratio” value is on record as 0.024±3.43×10^−4 and the “raw ^13C^14N−/^12C^14N− ratio” value is on record as 0.023±1.41×10^−5. Moreover, in data set [1], the “Average Mol fraction labeled” value was determined as 72.02%. Further, in the data set on Aβ plaques, the “increase above the natural abundance of ^13C/^12C” value worked out at 18% and the “mean ratio of ^13C^14N−/^12C^14N−” value is reported as 1.31%±0.05. In the data set on Aβ proteoforms, the “detection of labeled Aβx-38” value is listed as “unable detect”; the “enrichment above isotopic background, Aβ mid-domain” value is 0.053%; the “enrichment above isotopic background, Aβx-40” value is given as 0.112%; the “enrichment above isotopic background, Aβx-42” value was found to be 0.022%.
